Experimental data taken from patent publication US20010047018A1 (published 2001).

Row | melting point | SMILES
1 | 84 to 86 °C | CC(=O)NC[C@H]1CN(c2ccc3c(c2)CS(=O)(=O)N3C)C(=O)O1
2 | 84 to 87 °C (dec.) | CC(=O)NC[C@H]1CN(c2ccc3c(c2)CS(=O)(=O)N3CCF)C(=O)O1
3 | 124 to 126 °C (dec.) | CC(=O)NC[C@H]1CN(c2ccc3c(c2)CS(=O)(=O)N3CC#N)C(=O)O1
4 | 90 to 93 °C (dec.) | CC(=S)NC[C@H]1CN(c2ccc3c(c2)CS(=O)(=O)N3CCF)C(=O)O1
